What was measured:
Format in all cases: in vivo
[1] = tested on: Beet Armyworm (Spodoptera exigua, LAPHEG) second instar larvae; assay: Bioassay on Beet Armyworm (BAW), 128-well diet tray assay; conditions: Beet Armyworm, Table ABC Biological Results, read-out: BAW rating
Method: (§1) Certain molecules disclosed in this document were tested against BAW, CEW, and CL using procedures described in the following examples. In the reporting of the results, the “BAW, CEW, & CL Rating Table” was used (See Table Section).
Bioassays on BAW were conducted using a 128-well diet tray assay. one to five second instar BAW larvae were placed in each well (3 mL) of the diet tray that had been previously filled with 1 mL of artificial diet to which 50 μg/cm^2 of the test molecule (dissolved in 50 μL of 90:10 acetone-water mixture) had been applied (to each of eight wells) and then allowed to dry. Trays were covered with a clear self-adhesive cover and held at 25° C., 14:10 light-dark for five to seven days. Percent mortality was recorded for the larvae in each well; activity in the eight wells was then averaged. The results are indicated in the table entitled “Table ABC: Biological Results” (See Table Section).
(§2) Bioassays on BAW and CL were conducted according to the procedures outlined in Example A: Bioassays on Beet Armyworm (“BAW”) and Cabbage Looper (“CL”) using the indicated concentrations.

[2] = tested on: Cabbage Looper (Trichoplusia ni, TRIPNI) second instar larvae; assay: Bioassay on Cabbage Looper (CL), 128-well diet tray assay; conditions: Cabbage Looper, Table ABC Biological Results, read-out: CL rating
Method: as §1
Bioassays on CL were conducted using a 128-well diet tray assay. one to five second instar CL larvae were placed in each well (3 mL) of the diet tray that had been previously filled with 1 mL of artificial diet to which 50 μg/cm^2 of the test molecule (dissolved in 50 μL of 90:10 acetone-water mixture) had been applied (to each of eight wells) and then allowed to dry. Trays were covered with a clear self-adhesive cover and held at 25° C., 14:10 light-dark for five to seven days. Percent mortality was recorded for the larvae in each well; activity in the eight wells was then averaged. The results are indicated in the table entitled “Table ABC: Biological Results” (See Table Section).
as §2

[3] = tested on: Yellow Fever Mosquito (Aedes aegypti, AEDSAE) larvae; assay: Bioassay on Yellow Fever Mosquito (YFM), 96-well plate larval assay; conditions: Table ABC Biological Results
Method: Certain molecules disclosed in this document were tested against YFM using procedures described in the following paragraph. In the reporting of the results, the “GPA & YFM Rating Table” was used (See Table Section).
Master plates containing 400 μg of a molecule dissolved in 100 μL of dimethyl sulfoxide (DMSO) (equivalent to a 4000 ppm solution) are used. A master plate of assembled molecules contains 15 μL per well. To this plate, 135 μL of a 90:10 water:acetone mixture is added to each well. A robot (Biomek® NXP Laboratory Automation Workstation) is programmed to dispense 15 μL aspirations from the master plate into an empty 96-well shallow plate (“daughter” plate). There are 6 reps (“daughter” plates) created per master. The created daughter plates are then immediately infested with YFM larvae.
The day before plates are to be treated, mosquito eggs are placed in Millipore water containing liver powder to begin hatching (4 g. into 400 mL). After the daughter plates are created using the robot, they are infested with 220 μL of the liver powder/larval mosquito mixture (about 1 day-old larvae). After plates are infested with mosquito larvae, a non-evaporative lid is used to cover the plate to reduce drying. Plates are held at room temperature for 3 days prior to grading. After 3 days, each well is observed and scored based on mortality. The results are indicated in the table entitled “Table ABC: Biological Results” (See Table Section).

C=Cc1c(Cl)cc(C(/C=C(\F)c2ccc(C(=O)N[C@H](C)NC(=O)CCC(F)(F)F)c(C(F)(F)F)c2)C(F)(F)F)cc1Cl (stereo partly drawn) [F19, 4-((Z)-3-(3,5-Dichloro-4-vinylphenyl)-1,4,4,4-tetrafluorobut-1-en-1-yl)-N—((R)-1-(4,4,4-trifluorobutanamido)ethyl)-2-(trifluoromethyl)benzamide]
pest or weed control at 50 µg/cm2 [1]: 50 to 100%
pest or weed control at 50 µg/cm2 [2]: 50 to 100%
YFM rating [3]: A (80-100)

C[C@H](NC(=O)CCC(F)(F)F)NC(=O)c1ccc(/C(F)=C/C(c2ccc(F)c(Cl)c2)C(F)(F)F)cc1C(F)(F)F (stereo partly drawn) [PF3, 4-((Z)-3-(3-Chloro-4-fluorophenyl)-1,4,4,4-tetrafluorobut-1-en-1-yl)-N—((R)-1-(4,4,4-trifluorobutanamido)ethyl)-2-(trifluoromethyl)benzamide]
pest or weed control at 50 µg/cm2 [1]: 50 to 100%
pest or weed control at 50 µg/cm2 [2]: 50 to 100%
YFM rating [3]: B (More than 0-Less than 80)

Cc1cc(C(/C=C(\F)c2ccc(C(=O)N[C@H](C)NC(=O)CCC(F)(F)F)c(C(F)(F)F)c2)C(F)(F)F)cc(C)c1Cl (stereo partly drawn) [F25, 4-((Z)-3-(4-Chloro-3,5-dimethylphenyl)-1,4,4,4-tetrafluorobut-1-en-1-yl)-N—((R)-1-(4,4,4-trifluorobutanamido)ethyl)-2-(trifluoromethyl)benzamide]
pest or weed control at 50 µg/cm2 [1]: 50 to 100%
pest or weed control at 50 µg/cm2 [2]: 50 to 100%
YFM rating [3]: A (80-100)

Cc1cc(C(/C=C(\F)c2ccc(C(=O)N[C@H](C)NC(=O)CC(F)(F)F)c(C(F)(F)F)c2)C(F)(F)F)cc(C)c1Cl (stereo partly drawn) [F24, 4-((Z)-3-(4-Chloro-3,5-dimethylphenyl)-1,4,4,4-tetrafluorobut-1-en-1-yl)-2-(trifluoromethyl)-N—((R)-1-(3,3,3-trifluoropropanamido)ethyl)benzamide]
pest or weed control at 50 µg/cm2 [1]: 50 to 100%
pest or weed control at 50 µg/cm2 [2]: 50 to 100%
YFM rating [3]: A (80-100)

C[C@H](NC(=O)CC(F)(F)F)NC(=O)c1ccc(/C(F)=C/C(c2cc(Br)c(Cl)c(Br)c2)C(F)(F)F)cc1C(F)(F)F (stereo partly drawn) [F26, 4-((Z)-3-(3,5-Dibromo-4-chlorophenyl)-1,4,4,4-tetrafluorobut-1-en-1-yl)-2-(trifluoromethyl)-N—((R)-1-(3,3,3-trifluoropropanamido)ethyl)benzamide]
pest or weed control at 50 µg/cm2 [1]: 50 to 100%
pest or weed control at 50 µg/cm2 [2]: 50 to 100%
YFM rating [3]: A (80-100)

C[C@H](NC(=O)CCC(F)(F)F)NC(=O)c1ccc(/C(F)=C/C(c2cc(Cl)cc(Cl)c2)C(F)(F)F)cc1C(F)(F)F (stereo partly drawn) [F12, 4-((Z)-3-(3,5-Dichlorophenyl)-1,4,4,4-tetrafluorobut-1-en-1-yl)-N—((R)-1-(4,4,4-trifluorobutanamido)ethyl)-2-(trifluoromethyl)benzamide]
pest or weed control at 50 µg/cm2 [1]: 50 to 100%
pest or weed control at 50 µg/cm2 [2]: 50 to 100%
YFM rating [3]: A (80-100)

C[C@H](NC(=O)CC(F)(F)F)NC(=O)c1ccc(/C(F)=C/C(c2cc(Cl)cc(Cl)c2)C(F)(F)F)cc1C(F)(F)F (stereo partly drawn) [F11, 4-((Z)-3-(3,5-dichlorophenyl)-1,4,4,4-tetrafluorobut-1-en-1-yl)-2-(trifluoromethyl)-N—((R)-1-(3,3,3-trifluoropropanamido)ethyl)benzamide]
pest or weed control at 50 µg/cm2 [1]: 50 to 100%
pest or weed control at 50 µg/cm2 [2]: 50 to 100%
YFM rating [3]: A (80-100)

C[C@H](NC(=O)CCC#N)NC(=O)c1ccc(/C(F)=C/C(c2cc(Cl)c(Cl)c(Cl)c2)C(F)(F)F)cc1C(F)(F)F (stereo partly drawn) [F41, N—((R)-1-(3-Cyanopropanamido)ethyl)-4-((Z)-1,4,4,4-tetrafluoro-3-(3,4,5-trichlorophenyl)but-1-en-1-yl)-2-(trifluoromethyl)benzamide]
pest or weed control at 50 µg/cm2 [1]: 50 to 100%
pest or weed control at 50 µg/cm2 [2]: 50 to 100%
YFM rating [3]: A (80-100)

C[C@H](NC(=O)CC(F)(F)F)NC(=O)c1ccc(/C(F)=C/C(c2ccc(Cl)c(F)c2)C(F)(F)F)cc1C(F)(F)F (stereo partly drawn) [PF2, 4-((Z)-3-(4-Chloro-3-fluorophenyl)-1,4,4,4-tetrafluorobut-1-en-1-yl)-2-(trifluoromethyl)-N—((R)-1-(3,3,3-trifluoropropanamido)ethyl)benzamide]
pest or weed control at 50 µg/cm2 [1]: 50 to 100%
pest or weed control at 50 µg/cm2 [2]: 50 to 100%
YFM rating [3]: A (80-100)

C[C@H](NC(=O)CC(F)(F)F)NC(=O)c1ccc(/C(F)=C/C(c2ccc(Cl)c(Cl)c2)C(F)(F)F)cc1C(F)(F)F (stereo partly drawn) [F13, 4-((Z)-3-(3,4-Dichlorophenyl)-1,4,4,4-tetrafluorobut-1-en-1-yl)-2-(trifluoromethyl)-N—((R)-1-(3,3,3-trifluoropropanamido)ethyl)benzamide]
pest or weed control at 50 µg/cm2 [1]: 50 to 100%
pest or weed control at 50 µg/cm2 [2]: 50 to 100%
YFM rating [3]: A (80-100)

C[C@H](NC(=O)CC(F)(F)F)NC(=O)c1ccc(/C(F)=C/C(c2ccc(Br)c(Br)c2)C(F)(F)F)cc1C(F)(F)F (stereo partly drawn) [F32, 4-((Z)-3-(3,4-Dibromophenyl)-1,4,4,4-tetrafluorobut-1-en-1-yl)-2-(trifluoromethyl)-N—((R)-1-(3,3,3-trifluoropropanamido)ethyl)benzamide]
pest or weed control at 50 µg/cm2 [1]: 50 to 100%
pest or weed control at 50 µg/cm2 [2]: 50 to 100%
YFM rating [3]: A (80-100)

C[C@H](NC(=O)CCC(F)(F)F)NC(=O)c1ccc(/C(F)=C/C(c2cc(Cl)c(Br)c(Cl)c2)C(F)(F)F)cc1C(F)(F)F (stereo partly drawn) [F15, 4-((Z)-3-(4-Bromo-3,5-dichlorophenyl)-1,4,4,4-tetrafluorobut-1-en-1-yl)-N—((R)-1-(4,4,4-trifluorobutanamido)ethyl)-2-(trifluoromethyl)benzamide]
pest or weed control at 50 µg/cm2 [1]: 50 to 100%
pest or weed control at 50 µg/cm2 [2]: 50 to 100%
YFM rating [3]: A (80-100)

C[C@H](NC(=O)CCC(F)(F)F)NC(=O)c1ccc(/C(F)=C/C(c2ccc(Cl)c(Cl)c2)C(F)(F)F)cc1C(F)(F)F (stereo partly drawn) [F14, 4-((Z)-3-(3,4-Dichlorophenyl)-1,4,4,4-tetrafluorobut-1-en-1-yl)-N—((R)-1-(4,4,4-trifluorobutanamido)ethyl)-2-(trifluoromethyl)benzamide]
pest or weed control at 50 µg/cm2 [1]: 50 to 100%
pest or weed control at 50 µg/cm2 [2]: 50 to 100%
YFM rating [3]: A (80-100)

C[C@H](NC(=O)CC(F)(F)F)NC(=O)c1ccc(/C(F)=C/C(c2cc(Br)cc(Br)c2)C(F)(F)F)cc1C(F)(F)F (stereo partly drawn) [F22, 4-((Z)-3-(3,5-Dibromophenyl)-1,4,4,4-tetrafluorobut-1-en-1-yl)-2-(trifluoromethyl)-N—((R)-1-(3,3,3-trifluoropropanamido)ethyl)benzamide]
pest or weed control at 50 µg/cm2 [1]: 50 to 100%
pest or weed control at 50 µg/cm2 [2]: 50 to 100%
YFM rating [3]: A (80-100)

Cc1cc(C(/C=C(\F)c2ccc(C(=O)N[C@H](C)NC(=O)CC(F)(F)F)c(C(F)(F)F)c2)C(F)(F)F)cc(Cl)c1Cl (stereo partly drawn) [PF4, 4-((Z)-3-(3,4-Dichloro-5-methylphenyl)-1,4,4,4-tetrafluorobut-1-en-1-yl)-2-(trifluoromethyl)-N—((R)-1-(3,3,3-trifluoropropanamido)ethyl)benzamide]
pest or weed control at 50 µg/cm2 [1]: 50 to 100%
pest or weed control at 50 µg/cm2 [2]: 50 to 100%
YFM rating [3]: B (More than 0-Less than 80)

From patent US9924716B2, “Molecules having pesticidal utility, and intermediates, compositions, and processes, related thereto” (Dow AgroSciences LLC, priority 2016, dated 2018)
